For data set [1] the following is noted: cited from earlier work.
Another data set concerns the target T1, hDAT (Homo sapiens, UniProt Q01959).
T1 construct: expressed in transfected cells; host or cells: HEK-293T (HEK293T), stably transfected
The data set can be described thus: Neurotransmitter Transporter Uptake Assay Kit, DA reuptake inhibition. To be noted: Table 1; inhibition of dopamine reuptake, reduction of RFU. It counts as cell-based. The method, then: DA uptake activity was measured using a Neurotransmitter Transporter Uptake Assay Kit (Molecular Devices, San Jose, CA, USA). […] 2-[4-(2-hydroxyethyl)-1-piperazinyl] ethanesulfonic acid (HEPES) buffer solution (150 mM NaCl, 5 mM KCl, 10 mM glucose, 2 mM CaCl2, 1 mM MgCl2, 10 mM HEPES, pH 7.4) was used to wash cells three times before the experiment. Cells in the experimental group were treated with six different compounds. After 15 min, the dye solution was added and the fluorescence intensity was measured for 30 min in the 520 nm range with excitation at 440 nm. The inhibition percentages were calculated using the end point measurements at 30 min. The four-parameter logistic nonlinear regression model was used to determine the half maximal inhibitory concentration (IC50) values.
The DA reuptake inhibitory activities of the six repurposed drugs were evaluated using the Neurotransmitter Transporter Uptake Assay Kit through dose-response assays. This assay employs a novel fluorescent indicator dye designed to mimic neurotransmitters, along with a masking dye to quench extracellular fluorescence, enabling precise measurement of transporter-mediated uptake activity.

Each structure is given as a SMILES string. Where a name gives a salt, the structure may show the parent alone. Read-outs that look alike come from different tables or passages of the source.

As a reminder, the IC50 is the point on the concentration scale where inhibition reaches its midpoint.

T1 sequence (Q01959 whole entry): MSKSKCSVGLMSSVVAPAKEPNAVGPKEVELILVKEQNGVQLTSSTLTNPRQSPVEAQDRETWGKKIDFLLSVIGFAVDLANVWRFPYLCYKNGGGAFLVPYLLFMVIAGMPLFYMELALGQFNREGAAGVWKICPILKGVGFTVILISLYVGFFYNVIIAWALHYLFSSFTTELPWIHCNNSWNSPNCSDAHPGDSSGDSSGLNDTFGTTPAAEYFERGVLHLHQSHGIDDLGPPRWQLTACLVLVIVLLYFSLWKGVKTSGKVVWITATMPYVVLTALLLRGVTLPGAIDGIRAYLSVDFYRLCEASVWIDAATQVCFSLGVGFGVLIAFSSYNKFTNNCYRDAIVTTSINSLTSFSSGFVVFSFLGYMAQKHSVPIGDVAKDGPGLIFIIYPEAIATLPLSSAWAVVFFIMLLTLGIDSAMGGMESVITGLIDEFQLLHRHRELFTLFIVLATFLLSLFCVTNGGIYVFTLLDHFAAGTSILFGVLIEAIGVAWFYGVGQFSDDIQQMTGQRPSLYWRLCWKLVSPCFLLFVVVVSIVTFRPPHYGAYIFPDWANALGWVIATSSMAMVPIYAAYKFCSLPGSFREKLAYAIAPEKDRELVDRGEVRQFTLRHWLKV

In the case of `Cc1cccc(C)c1NC(=O)C1CCCCN1C` (stereo not drawn) [Compound 14, Mepivacaine hydrochloride], the metabolism result in data set [1] (restricts application to peripheral nerve blockade) was “rapid metabolism”. This compound registered an IC50 on hDAT of 542 nM.

Take `CCCN1CCCC[C@H]1C(=O)Nc1c(C)cccc1C` [Compound 4, Ropivacaine]: the “CNS and cardiac toxicity” value in data set [1] (previous research) is “mild CNS and cardiac toxicity”. The IC50 against hDAT was 753 nM.

Consider `CCCCN1CCCC[C@H]1C(=O)Nc1c(C)cccc1C` [Compound 19, Levobupivacaine], for which, in data set [1] (particularly under acidosis and hyperkalemia), the “CNS and cardiac toxicity” value is “mild CNS and cardiac toxicity”. Moreover, the IC50 at hDAT was determined as 1210 nM.

The record behind these values is publication PMC12398837 (Journal of Pharmaceutical Analysis, 2025).
